According to ChEMBL document CHEMBL5046216, “Disrupting Tryptophan in the Central Hydrophobic Region Selectively Mitigates Immunomodulatory Activities of the Innate Defence Regulator Peptide IDR-1002” (J Med Chem, 2021):
Each block holds one substance with its values, some of them ahead of it. Activity calls are given as the source filed them. The calls are words filed in the database; no cut-off is given here.

What was measured:
Mus musculus [1] = assay: Effect on MCP1 level in dust-mite-induced BALB/c mouse model of airway inflammation assessed as greater than 2 fold induction at 6 mg/kg, sc administered for 2 weeks and measured 24 hrs post-HDM challenge by MSD multiplex assay; type: functional, organism-based
Mus musculus [2] = assay: Effect on IL-25 level in dust-mite-induced BALB/c mouse model of airway inflammation assessed as greater than 2 fold induction at 6 mg/kg, sc administered for 2 weeks and measured 24 hrs post-HDM challenge by MSD multiplex assay; type: functional, organism-based
Mus musculus [3] = assay: Effect on IL-9 level in dust-mite-induced BALB/c mouse model of airway inflammation assessed as greater than 2 fold induction at 6 mg/kg, sc administered for 2 weeks and measured 24 hrs post-HDM challenge by MSD multiplex assay; type: functional, organism-based
Mus musculus [4] = assay: Antiinflammatory activity in house dust-mite-induced BALB/c mouse model of airway inflammation assessed as suppression of IL-33 abundance in lung tissue lysate at 6 mg/kg, sc administered for 2 weeks and measured 24 hrs post-HDM challenge by ELISA; type: functional
Mus musculus [5] = assay: Effect on IL-17A level in dust-mite-induced BALB/c mouse model of airway inflammation assessed as greater than 2 fold induction at 6 mg/kg, sc administered for 2 weeks and measured 24 hrs post-HDM challenge by MSD multiplex assay; type: functional, organism-based
Mus musculus [6] = assay: Effect on IL-17F level in dust-mite-induced BALB/c mouse model of airway inflammation assessed as greater than 2 fold induction at 6 mg/kg, sc administered for 2 weeks and measured 24 hrs post-HDM challenge by MSD multiplex assay; type: functional, organism-based
Mus musculus [7] = assay: Effect on IL-21 level in dust-mite-induced BALB/c mouse model of airway inflammation assessed as greater than 2 fold induction at 6 mg/kg, sc administered for 2 weeks and measured 24 hrs post-HDM challenge by MSD multiplex assay; type: functional, organism-based
Mus musculus [8] = assay: Effect on IL-31 level in dust-mite-induced BALB/c mouse model of airway inflammation assessed as greater than 2 fold induction at 6 mg/kg, sc administered for 2 weeks and measured 24 hrs post-HDM challenge by MSD multiplex assay; type: functional, organism-based
Mus musculus [9] = assay: Effect on IL-17C level in dust-mite-induced BALB/c mouse model of airway inflammation assessed as greater than 2 fold induction at 6 mg/kg, sc administered for 2 weeks and measured 24 hrs post-HDM challenge by MSD multiplex assay; type: functional, organism-based
Mus musculus [10] = assay: Effect on IL-23 level in dust-mite-induced BALB/c mouse model of airway inflammation assessed as greater than 2 fold induction at 6 mg/kg, sc administered for 2 weeks and measured 24 hrs post-HDM challenge by MSD multiplex assay; type: functional, organism-based
Mus musculus [11] = assay: Effect on IL-22 level in dust-mite-induced BALB/c mouse model of airway inflammation assessed as greater than 2 fold induction at 6 mg/kg, sc administered for 2 weeks and measured 24 hrs post-HDM challenge by MSD multiplex assay; type: functional, organism-based
Mus musculus [12] = assay: Effect on MIP3alpha level in dust-mite-induced BALB/c mouse model of airway inflammation assessed as greater than 2 fold induction at 6 mg/kg, sc administered for 2 weeks and measured 24 hrs post-HDM challenge by MSD multiplex assay; type: functional, organism-based
Mus musculus [13] = assay: Effect on TNF 1 level in dust-mite-induced BALB/c mouse model of airway inflammation assessed as greater than 2 fold induction at 6 mg/kg, sc administered for 2 weeks and measured 24 hrs post-HDM challenge by MSD multiplex assay; type: functional, organism-based
Mus musculus [14] = assay: Effect on IL-12p70 level in dust-mite-induced BALB/c mouse model of airway inflammation assessed as greater than 2 fold induction at 6 mg/kg, sc administered for 2 weeks and measured 24 hrs post-HDM challenge by MSD multiplex assay; type: functional, organism-based
Mus musculus [15] = assay: Effect on IL-10 level in dust-mite-induced BALB/c mouse model of airway inflammation assessed as greater than 2 fold induction at 6 mg/kg, sc administered for 2 weeks and measured 24 hrs post-HDM challenge by MSD multiplex assay; type: functional, organism-based
Mus musculus [16] = assay: Effect on KC 10 level in dust-mite-induced BALB/c mouse model of airway inflammation assessed as greater than 2 fold induction at 6 mg/kg, sc administered for 2 weeks and measured 24 hrs post-HDM challenge by MSD multiplex assay; type: functional, organism-based
Mus musculus [17] = assay: Effect on IL-6 level in dust-mite-induced BALB/c mouse model of airway inflammation assessed as greater than 2 fold induction at 6 mg/kg, sc administered for 2 weeks and measured 24 hrs post-HDM challenge by MSD multiplex assay; type: functional, organism-based
Mus musculus [18] = assay: Effect on IL-5 level in dust-mite-induced BALB/c mouse model of airway inflammation assessed as greater than 2 fold induction at 6 mg/kg, sc administered for 2 weeks and measured 24 hrs post-HDM challenge by MSD multiplex assay; type: functional, organism-based
Mus musculus [19] = assay: Effect on IL-4 level in dust-mite-induced BALB/c mouse model of airway inflammation assessed as greater than 2 fold induction at 6 mg/kg, sc administered for 2 weeks and measured 24 hrs post-HDM challenge by MSD multiplex assay; type: functional, organism-based
Mus musculus [20] = assay: Effect on IL-2 level in dust-mite-induced BALB/c mouse model of airway inflammation assessed as greater than 2 fold induction at 6 mg/kg, sc administered for 2 weeks and measured 24 hrs post-HDM challenge by MSD multiplex assay; type: functional, organism-based
Mus musculus [21] = assay: Effect on IL-1beta level in dust-mite-induced BALB/c mouse model of airway inflammation assessed as greater than 2 fold induction at 6 mg/kg, sc administered for 2 weeks and measured 24 hrs post-HDM challenge by MSD multiplex assay; type: functional, organism-based
HBEC3-KT [22] = assay: Antiinflammatory activity in human HBEC3-KT cells assessed as effect on MCP1 expression measured after 24 hrs by ELISA relative to control; type: functional, cell-based
[23] = Retention time of the compound by HPLC analysis; type: physicochemical
HBEC3-KT [24] = assay: Cytotoxicity against human HBEC3-KT incubated for 24 hrs by LDH assay; type: functional
HBEC3-KT [25] = assay: Immunomodulatory activity in human HBEC3-KT cells assessed as suppression of INFgamma-induced IL-33 at 10 uM preincubated for 30 mins followed by INFgamma stimulation and measured after 24 hrs by Western blot analysis; type: functional
HBEC3-KT [26] = assay: Antiinflammatory activity in INFgamma-induced MCP1 expressed in human HBEC3-KT cells assessed as fold change measured after 24 hrs by ELISA relative to control; type: functional
HBEC3-KT [27] = assay: Antiinflammatory activity in human HBEC3-KT cells assessed as fold increase in STC1 expression at 10 uM measured after 24 hrs by ELISA relative to control; type: functional
[28] = Stability of the compound in human HBEC3-KT cells assessed as compound degradation ay 10 uM measured after 16 hrs by FRET assay relative to control; type: functional
Mus musculus [29] = assay: Antiinflammatory activity in house dust-mite-induced BALB/c mouse model of airway inflammation assessed as suppression of total leukocyte count in BALF at 6 mg/kg, sc administered for 2 weeks and measured 24 hrs post-HDM challenge by Wright-Giemsa staining based microscopy; type: functional
Mus musculus [30] = assay: Antiinflammatory activity in house dust-mite-induced BALB/c mouse model of airway inflammation assessed as suppression of total eosinophil count in BALF at 6 mg/kg, sc administered for 2 weeks and measured 24 hrs post-HDM challenge by Wright-Giemsa staining based microscopy; type: functional
Mus musculus [31] = assay: Antiinflammatory activity in house dust-mite-induced BALB/c mouse model of airway inflammation assessed as suppression of total neutrophil count in BALF at 6 mg/kg, sc administered for 2 weeks and measured 24 hrs post-HDM challenge by Wright-Giemsa staining based microscopy; type: functional
Mus musculus [32] = assay: (§1) Antiinflammatory activity in house dust-mite-induced BALB/c mouse model of methacholine-induced airway hyperreactivity assessed as reduction in methacholine-induced newtonian resistance at 6 mg/kg , ip administered for 2 weeks after methacholine-stimulation at 50 mg/ml measured 24 hrs post-HDM challenge; type: functional; design: scale not given: the % may be the effect or the level left
Mus musculus [33] = assay: Antiinflammatory activity in house dust-mite-induced BALB/c mouse model of methacholine-induced airway hyperreactivity assessed as reduction in methacholine-induced tissue damping at 6 mg/kg , ip administered for 2 weeks after methacholine-stimulation at 50 mg/ml measured 24 hrs post-HDM challenge; type: functional; design: scale not given: the % may be the effect or the level left
Mus musculus [34] = assay: Antiinflammatory activity in house dust-mite-induced BALB/c mouse model of methacholine-induced airway hyperreactivity assessed as reduction in methacholine-induced tissue elastance at 6 mg/kg , ip administered for 2 weeks after methacholine-stimulation at 50 mg/ml measured 24 hrs post-HDM challenge; type: functional; design: scale not given: the % may be the effect or the level left
Mus musculus [35] = assay: as §1, with “12” for “50”; type: functional, organism-based
Mus musculus [36] = assay: Antiinflammatory activity in house dust-mite-induced BALB/c mouse model of methacholine-induced airway hyperreactivity assessed as reduction in methacholine-induced tissue damping at 6 mg/kg , ip administered for 2 weeks after methacholine-stimulation at 12 mg/ml measured 24 hrs post-HDM challenge; type: functional, organism-based
Mus musculus [37] = assay: Antiinflammatory activity in house dust-mite-induced BALB/c mouse model of methacholine-induced airway hyperreactivity assessed as reduction in methacholine-induced tissue elastance at 6 mg/kg , ip administered for 2 weeks after methacholine-stimulation at 12 mg/ml measured 24 hrs post-HDM challenge; type: functional, organism-based
HBEC3-KT [38] = assay: Antiinflammatory activity in human HBEC3-KT cells assessed as fold increase in IL-1RA expression at 10 uM measured after 24 hrs by ELISA relative to control; type: functional
Mus musculus [39] = assay: Effect on IFNgamma level in dust-mite-induced BALB/c mouse model of airway inflammation assessed as greater than 2 fold induction at 6 mg/kg, sc administered for 2 weeks and measured 24 hrs post-HDM challenge by MSD multiplex assay; type: functional, organism-based
Mus musculus [40] = assay: Effect on IL-30 level in dust-mite-induced BALB/c mouse model of airway inflammation assessed as greater than 2 fold induction at 6 mg/kg, sc administered for 2 weeks and measured 24 hrs post-HDM challenge by MSD multiplex assay; type: functional, organism-based
Mus musculus [41] = assay: Effect on IL-15 level in dust-mite-induced BALB/c mouse model of airway inflammation assessed as greater than 2 fold induction at 6 mg/kg, sc administered for 2 weeks and measured 24 hrs post-HDM challenge by MSD multiplex assay; type: functional, organism-based
Mus musculus [42] = assay: Effect on IL-17AF level in dust-mite-induced BALB/c mouse model of airway inflammation assessed as greater than 2 fold induction at 6 mg/kg, sc administered for 2 weeks and measured 24 hrs post-HDM challenge by MSD multiplex assay; type: functional, organism-based
Mus musculus [43] = assay: Effect on MIP1alpha level in dust-mite-induced BALB/c mouse model of airway inflammation assessed as greater than 2 fold induction at 6 mg/kg, sc administered for 2 weeks and measured 24 hrs post-HDM challenge by MSD multiplex assay; type: functional, organism-based
Mus musculus [44] = assay: Effect on IP10 level in dust-mite-induced BALB/c mouse model of airway inflammation assessed as greater than 2 fold induction at 6 mg/kg, sc administered for 2 weeks and measured 24 hrs post-HDM challenge by MSD multiplex assay; type: functional, organism-based
Mus musculus [45] = assay: Effect on MIP2 level in dust-mite-induced BALB/c mouse model of airway inflammation assessed as greater than 2 fold induction at 6 mg/kg, sc administered for 2 weeks and measured 24 hrs post-HDM challenge by MSD multiplex assay; type: functional, organism-based

Retention_time [23]: 14.04 min
Substance: H-VQRWLIVRRIRK-OH
Activity (Mus musculus [1]): inactive
Activity (Mus musculus [2]): inactive
Activity (Mus musculus [3]): inactive
Activity (Mus musculus [4]): inactive
Activity (Mus musculus [5]): inactive
Activity (Mus musculus [6]): inactive
Activity (Mus musculus [7]): inactive
Activity (Mus musculus [8]): inactive
Activity (Mus musculus [9]): inactive
Activity (Mus musculus [10]): inactive
Activity (Mus musculus [11]): inactive
Activity (Mus musculus [12]): inactive
Activity (Mus musculus [13]): inactive
Activity (Mus musculus [14]): inactive
Activity (Mus musculus [15]): inactive
Activity (Mus musculus [16]): inactive
Activity (Mus musculus [17]): inactive
Activity (Mus musculus [18]): inactive
Activity (Mus musculus [19]): inactive
Activity (Mus musculus [20]): inactive
Activity (Mus musculus [21]): inactive
Activity (HBEC3-KT [22]): inactive
Activity (HBEC3-KT [24]): inactive
Activity (HBEC3-KT [25]): inactive
fold change (FC) (HBEC3-KT [26]): inactive
fold change (FC) (HBEC3-KT [27]): inactive
Activity [28]: <5%
Activity (Mus musculus [29]): inactive
Activity (Mus musculus [30]): inactive
Activity (Mus musculus [31]): inactive
Activity (Mus musculus [32]): 39%
Activity (Mus musculus [33]): 64%
Activity (Mus musculus [34]): 63%
Activity (Mus musculus [35]): Active
Activity (Mus musculus [36]): Active
Activity (Mus musculus [37]): Active
Activity (HBEC3-KT [38]): inactive
Activity (Mus musculus [39]): inactive
Activity (Mus musculus [40]): inactive
Activity (Mus musculus [41]): inactive
Activity (Mus musculus [42]): inactive
Activity (Mus musculus [43]): inactive
Activity (Mus musculus [44]): inactive
Activity (Mus musculus [45]): inactive

Retention_time [23]: 17.4 min
Substance: H-VLRWLIVWRIRK-OH
Activity (HBEC3-KT [24]): 50%
